In paper PMC10396955, “2-Oxabicyclo[2.1.1]hexanes as saturated bioisosteres of the ortho-substituted phenyl ring” (Nature Chemistry, 2023):
Converted amounts (≈) assume the structure as drawn. Where two headings read alike, the source gives them in different places.

Experiments:
[1] = Kinetic solubility in phosphate-buffered saline, pH 7.4; format: physicochemical; details: 25 °C, pH 7.4, aqueous buffer, kinetic from dmso stock
Experimental: Analysis of Aqueous Solubility […]
compound (Ondansetron) were assessed for kinetic solubility in phosphate-buffered saline, pH […]
Phosphate buffered saline, pH 7.4 (Sigma-Aldrich, USA; Cat #P3813) […]
MultiScreen HTS 96 Well Filter Plates (Millipore, Ireland; Cat # MSGVS2210) […]
Matrix Multichannel Electronic Pipette 2-125 µL, 5-250 µL, 15-1250 µL (Thermo Scientific, […]
Vacuum pump (Millipore, USA; Model # XX5500000)
The measurements were performed using SpectraMax Plus reader in UV-Vis mode. Acquisition and analysis of the data were performed using SoftMax Pro v.5.4 (Molecular Devices) and Excel […]
Kinetic solubility assay was performed according to the Enamine’s aqueous solubility SOP.
Briefly, using a 20 mM stock solution of the compound in 100% DMSO dilutions were prepared to a theoretical concentration of 400 μM in duplicates in phosphate-buffered saline pH 7.4 […]
for two hours and then filtered through HTS filter plates using a vacuum manifold. The filtrates of test compounds were diluted 2-fold with acetonitrile with 2% DMSO before measuring.
In parallel, compound dilutions in acetonitrile/PBS (1:1) were prepared to theoretical […]
DMSO to generate calibration curves. Ondansetron was used as reference compound to control proper assay performance. 200 μl of each sample was transferred to 96-well plate and measured in 200-550 nm range with 5 nm step.
The concentrations of compounds in PBS filtrate are calculated using a dedicated Microsoft Excel calculation script. Proper absorbance wavelengths for calculations are selected for each compound manually based on absorbance maximums (absolute absorbance unit values for the minimum and maximum concentration points within 0 – 3 OD range). Each of the final datasets is additionally visually evaluated by the operator and goodness of fit (R2) is calculated for each calibration curve. The effective range of this assay is approximately 2-400 μM and the […]

Fusarium oxysporum = experiment: Antifungal activity, agar well diffusion method; format: cell-based; details: for zone of inhibition at 3.9 µg/mL / zone of inhibition at […] / zone of inhibition at 15.6 µg/mL / zone of inhibition at 31.25 µg/mL / zone of inhibition at 62.5 µg/mL / zone of inhibition at 125 µg/mL / zone of inhibition at 250 µg/mL / zone of inhibition at 500 µg/mL / zone of inhibition at 1000 µg/mL: Fusarium oxysporum, zones st (static growth), read-out: Diameter of inhibition zone; for zone of inhibition at 3.9 µg/mL: 0.0039 mg/mL; for zone of inhibition at […]: 0.0078 mg/mL; for zone of inhibition at 15.6 µg/mL: 0.0156 mg/mL; for zone of inhibition at 31.25 µg/mL: 0.03125 mg/mL; for zone of inhibition at 62.5 µg/mL: 0.0625 mg/mL; for zone of inhibition at 125 µg/mL: 0.125 mg/mL; for zone of inhibition at 250 µg/mL: 0.25 mg/mL; for zone of inhibition at 500 µg/mL: 0.5 mg/mL; for zone of inhibition at 1000 µg/mL: 1 mg/mL, 40 µl per well, 25 °C, 72 h; for lowest inhibition concentration: agar well diffusion, tested 0.0039-1.0 mg/mL
From the text: (§1) The agar well diffusion method is widely used to evaluate the antimicrobial activity of different substances (S. Magaldi, S. Mata-Essayag, C. Hartung de Capriles, et al. Well diffusion for antifungal susceptibility testing, Int. J. Infect. Dis. 8, 2004 , 39–45; C. Valgas, S. M. De Souza, E. F. A. Smânia, et al. Screening methods to determine antibacterial activity of natural products. Braz. J. Microbiol. 38 , 2007 , 369–380). Similarly to the procedure used in a disk-diffusion method, the agar plate surface is inoculated by spreading a volume of the microbial inoculum over the entire agar surface. Then, a hole with a diameter of 6 to 8 mm is punched aseptically with a sterile cork borer or a tip, and a volume […] of the antimicrobial agent or extract solution at desired concentration is introduced into the well. Then, agar plates are incubated under suitable conditions depending upon the test microorganism. The antimicrobial agent diffuses in the agar medium and inhibits the growth of the microbial strain tested (M. Balouiri, M. Sadiki, S. K. Ibnsouda. Methods for in vitro evaluating […]
(§2) Agar well diffusion method is a qualitative method used to measure the ability of compounds to inhibit microbial growth. This test is a quick and easy way to measure and compare levels of inhibitory […]
(§3) Antifungal activity of the synthetic compounds using agar well diffusion The compunds were tested towards plant pathogens Fusarium oxysporum Schltdl. and F. verticillioides (Sacc.) Nirenberg isolated from crops. Antifungal activity of the synthetic compounds was evaluated with using of an agar well diffusion method based on a disk diffusion assay for testing filamentous fungi (CLSI M51-A) [CLSI. Method for Antifungal Disk Diffusion Susceptibility Testing of Nondermatophyte Filamentous Fungi; Approved Guideline.CLSI document M51-A. Wayne, PA:
(§4) Clinical and Laboratory Standards Institute; 2010. This method is standardized for Altenaria , Aspergillus, Bipolaris , Fusarium , order Mucorales etc.
(§5) Preparation of synthetic compounds for mycological assay
(§6) Solutions of fungicides and its analogs were diluted in dimethyl sulfoxide (DMSO) to produce the […]
(§7) Antifungal well diffusion method
(§8) The fungal strains were cultured on potato dextrose agar slants (PDA, Eur. Pharm.) and incubated at 25 °C for 5 days. Sterile distilled water was used to cover and resuspend the colonies. Suspension of […]
(§9) conidia was adjusted to inoculums 5×10^6 conidia/mL. The suspension was further diluted in warm PDA 1:10 to obtain final working inoculums 5×10^5 conidia/mL.
(§10) Polypropylene cylinders (d, 5 mm) were placed on the surface and wells punched in the medium were used as reservoir of the test substances in different concentrations. 40 µl of solutions containing 0.0039-1.0 mg/mL of a test compound was added into the wells.
(§11) Each compound was tested in triplicate at different concentrations. Growth control was a well with 40 µl of DMSO, which was used for test components dilution.
(§12) Plates incubated at 25 °C for 72 h. The test compounds at known concentration into contact with an inoculated medium then exerts a growth-inhibiting effect then a clear zone (the zone of inhibition) appears around the test product. Diameter of a clear zone around the well is measured at the end of the incubation period in millimeters. If the fungal strain is susceptible to the antifungal agent, then a zone of inhibition appears on the agar plate. If it is resistant to the test compound, then no zone is evident.
(§13) The size of the zone of inhibition is usually related to the level of antifungal activity present in the […]
(§14) The growth rate of Fusarium oxysporum and F. verticillioides for each well was determined visually and compared with the growth of control.
(§15) As shown in the table the antifungal activity of the 6 compounds, - Fluxapyroxad, compound 28, compound 29, Boscalid, compound 30, compound 31, - were tested against plant pathogenic fungal […]
(§16) toward Fusarium oxysporum (Table S5, Figure S16). Inhibition zones of all compounds characterized […]

Fusarium verticillioides = experiment: Antifungal activity, agar well diffusion method; format: cell-based; details: Fusarium verticillioides, 0 = absence of antifungal activity, read-out: Diameter of inhibition zone; for zone of inhibition at 3.9 µg/mL: 0.0039 mg/mL; for zone of inhibition at […]: 0.0078 mg/mL; for zone of inhibition at 15.6 µg/mL: 0.0156 mg/mL; for zone of inhibition at 31.25 µg/mL: 0.03125 mg/mL; for zone of inhibition at 62.5 µg/mL: 0.0625 mg/mL; for zone of inhibition at 125 µg/mL: 0.125 mg/mL; for zone of inhibition at 250 µg/mL: 0.25 mg/mL; for zone of inhibition at 500 µg/mL: 0.5 mg/mL; for zone of inhibition at 1000 µg/mL: 1 mg/mL, 40 µl per well, 25 °C, 72 h
From the text: as §1, §2, §3, §4, §5, §6, §7, §8, §9, §10, §11, §12, §13, §14, §15, §16

With `Cn1cc(C(=O)Nc2ccccc2-c2cc(F)c(F)c(F)c2)c(C(F)F)n1` [Fluxapyroxad, reference compound] the solubility at 2 h ([1]; PBS solubility, pH 7.4, Incubation 1) was 24 µM (≈ 9.15 µg/mL), the solubility at 2 h ([1]; PBS solubility, pH 7.4, Incubation 2) was 27 µM (≈ 10.3 µg/mL) and the solubility at 2 h ([1]; Solubility) was 25 µM (≈ 9.53 µg/mL). For the same compound, the zone of inhibition at 3.9 µg/mL (Fusarium oxysporum) was 14 ± 1.2 mm, the zone of inhibition at […] (Fusarium oxysporum) was 17 ± 1.2 mm and the zone of inhibition at 15.6 µg/mL (Fusarium oxysporum) was 22 ± 1.7 mm. For the same compound, the zone of inhibition at 31.25 µg/mL (Fusarium oxysporum) was 28 ± 1.5 mm, the zone of inhibition at 62.5 µg/mL (Fusarium oxysporum) was 30 ± 0.6 mm and the zone of inhibition at 125 µg/mL (Fusarium oxysporum) was 33 ± 1 mm. The zone of inhibition at 250 µg/mL (Fusarium oxysporum) was 35 ± 0.6 mm, the zone of inhibition at 500 µg/mL (Fusarium oxysporum) was 38 ± 1.5 mm and the zone of inhibition at 1000 µg/mL (Fusarium oxysporum) was 43 ± 1.53 mm. The lowest inhibition concentration (Fusarium oxysporum) was less than 0.0039 mg/mL, the zone of inhibition at 3.9 µg/mL (Fusarium verticillioides) was 19 ± 0.6 mm and the zone of inhibition at […] (Fusarium verticillioides) was 26 ± 1.2 mm. For the same compound, the zone of inhibition at 15.6 µg/mL (Fusarium verticillioides) was 30 ± 1.5 mm, the zone of inhibition at 31.25 µg/mL (Fusarium verticillioides) was 33 ± 0.6 mm and the zone of inhibition at 62.5 µg/mL (Fusarium verticillioides) was 34 ± 1.2 mm. For the same compound, the zone of inhibition at 125 µg/mL (Fusarium verticillioides) was 36 ± 0.6 mm, the zone of inhibition at 250 µg/mL (Fusarium verticillioides) was 40 ± 1 mm and the zone of inhibition at 500 µg/mL (Fusarium verticillioides) was 49 ± 1.2 mm. It also gave a zone of inhibition at 1000 µg/mL (Fusarium verticillioides) of 56 ± 1.7 mm.
With `Cn1cc(C(=O)N[C@@H]2[C@@H]3CC[C@@]2(c2cc(F)c(F)c(F)c2)C3)c(C(F)F)n1` (relative stereo) [Compound 28] the solubility at 2 h ([1]; phosphate-buffered saline, Table S1, incubation 1, read-out: PBS solubility, pH 7.4, Incubation 1) was 35 µM (≈ 13.5 µg/mL), the solubility at 2 h ([1]; phosphate-buffered saline, Table S1, incubation 2, read-out: PBS solubility, pH 7.4, Incubation 2) was 33 µM (≈ 12.7 µg/mL) and the solubility at 2 h ([1]; phosphate-buffered saline, experimental kinetic solubility in phosphate-buffered saline at pH 7.4, Fig. 3, read-out: Solubility) was 34 µM (≈ 13.1 µg/mL). It also gave a zone of inhibition at 3.9 µg/mL (Fusarium oxysporum) of 20 mm, a zone of inhibition at […] (Fusarium oxysporum) of 25 mm and a zone of inhibition at 15.6 µg/mL (Fusarium oxysporum) of 26 ± 1 mm. For the same compound, the zone of inhibition at 31.25 µg/mL (Fusarium oxysporum) was 28 ± 1 mm, the zone of inhibition at 62.5 µg/mL (Fusarium oxysporum) was 30 ± 0.6 mm and the zone of inhibition at 125 µg/mL (Fusarium oxysporum) was 34 ± 1.2 mm. It also gave a zone of inhibition at 250 µg/mL (Fusarium oxysporum) of 38 ± 1.5 mm, a zone of inhibition at 500 µg/mL (Fusarium oxysporum) of 38 ± 0.6 mm and a zone of inhibition at 1000 µg/mL (Fusarium oxysporum) of 44 ± 1.15 mm. It also gave a lowest inhibition concentration (Fusarium oxysporum) of less than 0.0039 mg/mL, a zone of inhibition at 3.9 µg/mL (Fusarium verticillioides) of 35 ± 1.5 mm and a zone of inhibition at […] (Fusarium verticillioides) of 37 ± 1.5 mm. It also gave a zone of inhibition at 15.6 µg/mL (Fusarium verticillioides) of 41 ± 1.2 mm, a zone of inhibition at 31.25 µg/mL (Fusarium verticillioides) of 41 ± 1.7 mm and a zone of inhibition at 62.5 µg/mL (Fusarium verticillioides) of 47 ± 1 mm. For the same compound, the zone of inhibition at 125 µg/mL (Fusarium verticillioides) was 48 ± 1.5 mm, the zone of inhibition at 250 µg/mL (Fusarium verticillioides) was 51 ± 1.5 mm and the zone of inhibition at 500 µg/mL (Fusarium verticillioides) was 51 ± 1.7 mm. It also gave a zone of inhibition at 1000 µg/mL (Fusarium verticillioides) of 58 ± 1.5 mm.
